What was measured:
MCF-7/ADR = test: Cytotoxicity CCK-8 assay, MCF-7/ADR; format: cell-based; conditions: Homo sapiens, NCI/ADR-RES; for inhibition at 6.25 µM / inhibition at 12.5 µM / inhibition at 25 µM / inhibition at 50 µM / inhibition at 100 µM: 48 h, read-out: Cell proliferation inhibition (%)
Hela229 = test: Cytotoxicity CCK-8 assay, Hela229; format: cell-based; conditions: Homo sapiens, HeLa 229; for IC50: Hela229; for inhibition at 6.25 µM: Hela229, 6.25 μM; for inhibition at 6.25 µM / inhibition at 12.5 µM / inhibition at 25 µM / inhibition at 50 µM / inhibition at 100 µM: 48 h, read-out: Cell proliferation inhibition (%); for inhibition at 12.5 µM: Hela229, 12.5 μM; for inhibition at 25 µM: Hela229, 25 μM; for inhibition at 50 µM: Hela229, 50 μM; for inhibition at 100 µM: Hela229, 100 μM
SGC7901 = test: Cytotoxicity CCK-8 assay, SGC7901; format: cell-based; conditions: Homo sapiens, SGC-7901; for IC50: SGC7901; for inhibition at 6.25 µM: SGC7901, 6.25 μM; for inhibition at 6.25 µM / inhibition at 12.5 µM / inhibition at 25 µM / inhibition at 50 µM / inhibition at 100 µM: 48 h, read-out: Cell proliferation inhibition (%); for inhibition at 12.5 µM: SGC7901, 12.5 μM; for inhibition at 25 µM: SGC7901, 25 μM; for inhibition at 50 µM: SGC7901, 50 μM; for inhibition at 100 µM: SGC7901, 100 μM
BEL7402 = test: Cytotoxicity CCK-8 assay, BEL7402; format: cell-based; conditions: Homo sapiens, Bel-7402; for IC50: BEL7402; for inhibition at 6.25 µM: BEL7402, 6.25 μM; for inhibition at 6.25 µM / inhibition at 12.5 µM / inhibition at 25 µM / inhibition at 50 µM / inhibition at 100 µM: 48 h, read-out: Cell proliferation inhibition (%); for inhibition at 12.5 µM: BEL7402, 12.5 μM; for inhibition at 25 µM: BEL7402, 25 μM; for inhibition at 50 µM: BEL7402, 50 μM; for inhibition at 100 µM: BEL7402, 100 μM
PC-3 = test: Cytotoxicity CCK-8 assay, PC-3; format: cell-based; conditions: Homo sapiens; for IC50: PC-3; for inhibition at 6.25 µM: PC-3, 6.25 μM; for inhibition at 6.25 µM / inhibition at 12.5 µM / inhibition at 25 µM / inhibition at 50 µM / inhibition at 100 µM: 48 h, read-out: Cell proliferation inhibition (%); for inhibition at 12.5 µM: PC-3, 12.5 μM; for inhibition at 25 µM: PC-3, 25 μM; for inhibition at 50 µM: PC-3, 50 μM; for inhibition at 100 µM: PC-3, 100 μM
[1] = tested on: Hela229, SGC7901, PC-3, BEL7402, and MCF-7/ADR; test: Cytotoxicity CCK-8 assay, small panel of human cancer cell lines (summary statements); format: cell-based; conditions: Hela229, SGC7901, PC-3, and BEL7402 cells, read-out: IC50s
SH-SY5Y cells = test: Neuroprotection against H2O2-induced neurotoxicity (MTT); format: cell-based
[2] = tested on: influenza virus B/Victoria strain; test: microbe, parasite or virus in culture; format: cell-based; conditions: MDCK
[3] = tested on: A/H3N2 and B/Victoria strains; test: microbe, parasite or virus in culture; format: cell-based; conditions: Influenza A virus, range over compounds 22 and 26 and both strains
influenza virus A/H3N2 = test: microbe, parasite or virus in culture; format: cell-based, influenza virus A (H3N2 strain)
[4] = Influenza A virus, H3N2, MDCK, read-out: CPE inhibition
[5] = Homo sapiens, SH-SY5Y, read-out: Cell viability (% of control group)

Work on `CC(C)[C@@H](C)/C=C/[C@@H](C)[C@H]1CC[C@H]2C3=CC(=O)O[C@@]3(O)CC[C@]12C` [Compound 33, demethylincisterol A3] yielded an IC50 (MCF-7/ADR) of over 50 µM, an inhibition at 6.25 µM (MCF-7/ADR) of 5.5% and an inhibition at 12.5 µM (MCF-7/ADR) of 5.1%. It also gave an inhibition at 25 µM (MCF-7/ADR) of 27.1%, an inhibition at 50 µM (MCF-7/ADR) of 42.6% and an inhibition at 100 µM (MCF-7/ADR) of 81.6%. For the same molecule, the IC50 (Hela229) was 24.4 µM, the inhibition at 6.25 µM (Hela229) was -4.8% and the inhibition at 12.5 µM (Hela229) was 5.8%. The inhibition at 25 µM (Hela229) was 52.3%, the inhibition at 50 µM (Hela229) was 96.2% and the inhibition at 100 µM (Hela229) was 96.7%. The IC50 (SGC7901) was 26.7 µM, the inhibition at 6.25 µM (SGC7901) was 8.3% and the inhibition at 12.5 µM (SGC7901) was 16.7%. The inhibition at 25 µM (SGC7901) was 39.1%, the inhibition at 50 µM (SGC7901) was 93.5% and the inhibition at 100 µM (SGC7901) was 94.7%. It also gave an IC50 (BEL7402) of 27.7 µM, an inhibition at 6.25 µM (BEL7402) of 10% and an inhibition at 12.5 µM (BEL7402) of 15.3%. The inhibition at 25 µM (BEL7402) was 49.4%, the inhibition at 50 µM (BEL7402) was 75.3% and the inhibition at 100 µM (BEL7402) was 82.8%. For the same molecule, the IC50 (PC-3) was 28.4 µM, the inhibition at 6.25 µM (PC-3) was 12.4% and the inhibition at 12.5 µM (PC-3) was 21.6%. It also gave an inhibition at 25 µM (PC-3) of 47.3%, an inhibition at 50 µM (PC-3) of 67.7% and an inhibition at 100 µM (PC-3) of 85.9%. For the same molecule, the IC50 [1] was 20 to 30 µM.
In the case of `CC(=O)N[C@@H](CS)C(=O)O` [NAC, N-acetylcysteine, reference compound], the “Cell viability (% of control group)” value (SH-SY5Y cells; 500 μM compound, 80 μM H2O2, mean ± SEM) is reported as 81.05%.
With `O=C1NCCc2c1[nH]c1ccccc21` [Compound 9, 1,2,3,4-tetrahydro-1-oxo-β-carboline] the IC50 (MCF-7/ADR) was over 50 µM, the inhibition at 6.25 µM (MCF-7/ADR) was -0.9% and the inhibition at 12.5 µM (MCF-7/ADR) was 1.7%. The inhibition at 25 µM (MCF-7/ADR) was 3.4%, the inhibition at 50 µM (MCF-7/ADR) was 2.9% and the inhibition at 100 µM (MCF-7/ADR) was 2.5%. The IC50 (Hela229) was 10.8 µM, the inhibition at 6.25 µM (Hela229) was 37.1% and the inhibition at 12.5 µM (Hela229) was 53.7%. For the same molecule, the inhibition at 25 µM (Hela229) was 68.7%, the inhibition at 50 µM (Hela229) was 83.3% and the inhibition at 100 µM (Hela229) was 88%. The IC50 (SGC7901) was over 50 µM, the inhibition at 6.25 µM (SGC7901) was 13.2% and the inhibition at 12.5 µM (SGC7901) was 17.5%. It also gave an inhibition at 25 µM (SGC7901) of 27.1%, an inhibition at 50 µM (SGC7901) of 37.4% and an inhibition at 100 µM (SGC7901) of 44.3%. It also gave an IC50 (BEL7402) of 41.5 µM, an inhibition at 6.25 µM (BEL7402) of 12.5% and an inhibition at 12.5 µM (BEL7402) of 24.4%. It also gave an inhibition at 25 µM (BEL7402) of 44.4%, an inhibition at 50 µM (BEL7402) of 56.4% and an inhibition at 100 µM (BEL7402) of 63.6%. For the same molecule, the IC50 (PC-3) was over 50 µM, the inhibition at 6.25 µM (PC-3) was 3% and the inhibition at 12.5 µM (PC-3) was 1.7%. For the same molecule, the inhibition at 25 µM (PC-3) was 4%, the inhibition at 50 µM (PC-3) was 2.6% and the inhibition at 100 µM (PC-3) was 14%.
`CC(C)[C@@H](C)/C=C/[C@@H](C)[C@H]1CC[C@H]2C3=C[C@@H](O)[C@@]4(O)C[C@@H](O)CC[C@]4(C)[C@H]3CC[C@]12C` [Compound 22, cerevisterol] showed an EC50 [2] of 6.6 µM, an IC50 [2] of 6.6 µM and an inhibition at 1.56 µM ([2]; read-out: CPE inhibition) of 0%. The inhibition at 3.13 µM ([2]; read-out: CPE inhibition) was 0%, the inhibition at 6.25 µM ([2]; read-out: CPE inhibition) was 10% and the inhibition at 12.5 µM ([2]; read-out: CPE inhibition) was 75%. It also gave an inhibition at 25 µM ([2]; read-out: CPE inhibition) of 75%, an EC50 [3] of 3.6 to 9.6 µM and an IC50 (influenza virus A/H3N2; Influenza A virus, H3N2, MDCK) of 9.6 µM. The inhibition at 1.56 µM (influenza virus A/H3N2; [4]) was 0%, the inhibition at 3.13 µM (influenza virus A/H3N2; [4]) was 0% and the inhibition at 6.25 µM (influenza virus A/H3N2; [4]) was 0%. It also gave an inhibition at 12.5 µM (influenza virus A/H3N2; [4]) of 75%, an inhibition at 25 µM (influenza virus A/H3N2; [4]) of 75% and an EC50 (influenza virus A/H3N2; MDCK) of 9.6 µM.
Work on `O=C1O/C(=C(/C(=O)O)c2ccc(O)c(O)c2)C(O)=C1c1ccc(O)c(O)c1` [Compound 19, variegatic acid] yielded a viability at 2.5 µM (SH-SY5Y cells; [5]) of 56.4 ± 1.79%, a viability at 5 µM (SH-SY5Y cells; [5]) of 59.3 ± 2.94% and a viability at 10 µM (SH-SY5Y cells; [5]) of 63.7 ± 2.8%. For the same molecule, the viability at 20 µM (SH-SY5Y cells; [5]) was 71.5% and the viability at 40 µM (SH-SY5Y cells; [5]) was 81.9%.
